Laboratory results published in the NIST ThermoML archive (doi:10.1016/j.tca.2016.05.001).
Several values for one entry are separate records, joined by “and”; a condition that tells them apart may be missing. Equal values may be shown once.

Tests used:
[1] = Molar enthalpy of transition or fusion; conditions: Crystal; DSC
[2] = for Triple point temperature: DSC

c1cnc2c(c1)ccc1ncccc12 [1,5-diazaphenanthrene]
Conditions	Molar enthalpy of transition or fusion [kcal/mol]
[1]	6.12

[2]
Conditions	vapor or sublimation pressure
315 K, Crystal, Torsion effusion method	3.8e-05 kPa
315.1 K, Crystal, Torsion effusion method	3.8e-05 kPa
317.3 K, Crystal, Torsion effusion method	4.7e-05 kPa
317.9 K, Crystal, Torsion effusion method	5.7e-05 kPa
318.6 K, Crystal, Torsion effusion method	5.7e-05 kPa
319.5 K, Crystal, Torsion effusion method	6.7e-05 kPa
320.5 K, Crystal, Torsion effusion method	7.6e-05 kPa
320.8 K, Crystal, Torsion effusion method	7.6e-05 kPa
322.6 K, Crystal, Torsion effusion method	0.0001 kPa
322.9 K, Crystal, Torsion effusion method	0.00011 kPa
323 K, Crystal, Torsion effusion method	0.000114 kPa
323.8 K, Crystal, Torsion effusion method	0.00011 kPa
325.3 K, Crystal, Torsion effusion method	0.000142 kPa
325.6 K, Crystal, Torsion effusion method	0.00014 kPa
326 K, Crystal, Torsion effusion method	0.00015 kPa
326.2 K, Crystal, Torsion effusion method	0.00017 kPa
327.5 K, Crystal, Torsion effusion method	0.00021 kPa
328.2 K, Crystal, Torsion effusion method	0.000208 kPa and 0.00021 kPa
328.7 K, Crystal, Torsion effusion method	0.00023 kPa
329.1 K, Crystal, Torsion effusion method	0.00025 kPa
329.6 K, Crystal, Torsion effusion method	0.00026 kPa
330.5 K, Crystal, Torsion effusion method	0.00028 kPa
331 K, Crystal, Torsion effusion method	0.0003 kPa
331.5 K, Crystal, Torsion effusion method	0.00033 kPa
332 K, Crystal, Torsion effusion method	0.00032 kPa
333 K, Crystal, Torsion effusion method	0.00041 kPa
334.5 K, Crystal, Torsion effusion method	0.00044 kPa
334.9 K, Crystal, Torsion effusion method	0.00051 kPa
335 K, Crystal, Torsion effusion method	0.00047 kPa
336.2 K, Crystal, Torsion effusion method	0.00061 kPa
336.5 K, Crystal, Torsion effusion method	0.00055 kPa
337.7 K, Crystal, Torsion effusion method	0.00072 kPa
338.3 K, Crystal, Torsion effusion method	0.00072 kPa
339.3 K, Crystal, Torsion effusion method	0.00072 kPa
340 K, Crystal, Torsion effusion method	0.00095 kPa and 0.00091 kPa
340.4 K, Crystal, Torsion effusion method	0.00087 kPa
341.5 K, Crystal, Torsion effusion method	0.00112 kPa
342.6 K, Crystal, Torsion effusion method	0.00108 kPa
343.5 K, Crystal, Torsion effusion method	0.00127 kPa
380.1 K, Liquid, Rate of evaporation	0.023 kPa
382.1 K, Liquid, Rate of evaporation	0.028 kPa
385.6 K, Liquid, Rate of evaporation	0.032 kPa
388.2 K, Liquid, Rate of evaporation	0.037 kPa
390.3 K, Liquid, Rate of evaporation	0.043 kPa
393.1 K, Liquid, Rate of evaporation	0.05 kPa
395.6 K, Liquid, Rate of evaporation	0.057 kPa
398.1 K, Liquid, Rate of evaporation	0.065 kPa
403.1 K, Liquid, Rate of evaporation	0.086 kPa
405.6 K, Liquid, Rate of evaporation	0.097 kPa
408.1 K, Liquid, Rate of evaporation	0.113 kPa
410.9 K, Liquid, Rate of evaporation	0.132 kPa
413.1 K, Liquid, Rate of evaporation	0.145 kPa
418.1 K, Liquid, Rate of evaporation	0.187 kPa
423.1 K, Liquid, Rate of evaporation	0.24 kPa
428.1 K, Liquid, Rate of evaporation	0.302 kPa

Conditions	Triple point temperature [K]
[2], Crystal	351.7

c1cnc2c(c1)ccc1cccnc12 [1,10-phenanthroline]
Conditions	Molar enthalpy of transition or fusion [kcal/mol]
[1]	3.2

[2]
Conditions	vapor or sublimation pressure [kPa]
308.1 K, Crystal, Calculated from knudsen effusion weight loss	8.3e-07
313.1 K, Crystal, Calculated from knudsen effusion weight loss	1.76e-06
318.1 K, Crystal, Calculated from knudsen effusion weight loss	3.3e-06
320.9 K, Crystal, Calculated from knudsen effusion weight loss	4.6e-06
323.1 K, Crystal, Calculated from knudsen effusion weight loss	5.5e-06
325.8 K, Crystal, Calculated from knudsen effusion weight loss	8e-06
327.9 K, Crystal, Calculated from knudsen effusion weight loss	9.9e-06
330.9 K, Crystal, Calculated from knudsen effusion weight loss	1.53e-05
332.8 K, Crystal, Calculated from knudsen effusion weight loss	1.71e-05
335.7 K, Crystal, Calculated from knudsen effusion weight loss	2.6e-05
337.7 K, Crystal, Calculated from knudsen effusion weight loss	3e-05
340.6 K, Crystal, Calculated from knudsen effusion weight loss	4.2e-05
342.6 K, Crystal, Calculated from knudsen effusion weight loss	5.1e-05
345.5 K, Crystal, Calculated from knudsen effusion weight loss	7.7e-05
345.6 K, Crystal, Calculated from knudsen effusion weight loss	7.5e-05
347.5 K, Crystal, Calculated from knudsen effusion weight loss	9.2e-05
350.8 K, Crystal, Calculated from knudsen effusion weight loss	0.000131
352.7 K, Crystal, Calculated from knudsen effusion weight loss	0.000148
354.7 K, Crystal, Calculated from knudsen effusion weight loss	0.000194
357.7 K, Crystal, Calculated from knudsen effusion weight loss	0.00024
358.6 K, Crystal, Calculated from knudsen effusion weight loss	0.00025
360.5 K, Crystal, Calculated from knudsen effusion weight loss	0.0003
360.6 K, Crystal, Calculated from knudsen effusion weight loss	0.00033
361.8 K, Crystal, Calculated from knudsen effusion weight loss	0.00034
362.5 K, Crystal, Calculated from knudsen effusion weight loss	0.00038
363.4 K, Crystal, Calculated from knudsen effusion weight loss	0.0004
365 K, Crystal, Calculated from knudsen effusion weight loss	0.00046
366.3 K, Crystal, Calculated from knudsen effusion weight loss	0.00052
367.4 K, Crystal, Calculated from knudsen effusion weight loss	0.0006
367.6 K, Crystal, Calculated from knudsen effusion weight loss	0.00059
369.3 K, Crystal, Calculated from knudsen effusion weight loss	0.00069
370.9 K, Crystal, Calculated from knudsen effusion weight loss	0.0008
372.2 K, Crystal, Calculated from knudsen effusion weight loss	0.0009
374 K, Crystal, Calculated from knudsen effusion weight loss	0.00107
375.1 K, Crystal, Calculated from knudsen effusion weight loss	0.00119
377.2 K, Crystal, Calculated from knudsen effusion weight loss	0.0014
378.1 K, Crystal, Calculated from knudsen effusion weight loss	0.00154
380.1 K, Crystal, Calculated from knudsen effusion weight loss	0.00182
381 K, Crystal, Calculated from knudsen effusion weight loss	0.00199
382.8 K, Crystal, Calculated from knudsen effusion weight loss	0.00229
384.2 K, Crystal, Calculated from knudsen effusion weight loss	0.00264
385.6 K, Crystal, Calculated from knudsen effusion weight loss	0.00292
387.1 K, Crystal, Calculated from knudsen effusion weight loss	0.00335
393.2 K, Liquid, Rate of evaporation	0.0054
395.9 K, Liquid, Rate of evaporation	0.0061
398.6 K, Liquid, Rate of evaporation	0.0073
401.3 K, Liquid, Rate of evaporation	0.0084
404.1 K, Liquid, Rate of evaporation	0.0094
406.8 K, Liquid, Rate of evaporation	0.0113
409.5 K, Liquid, Rate of evaporation	0.0131
412.3 K, Liquid, Rate of evaporation	0.0147
415 K, Liquid, Rate of evaporation	0.0173
417.7 K, Liquid, Rate of evaporation	0.0206
420.5 K, Liquid, Rate of evaporation	0.024

Conditions	Triple point temperature [K]
[2], Crystal	390.9

c1cnc2ccc3ncccc3c2c1 [4,7-phenanthroline]
Conditions	Molar enthalpy of transition or fusion [kcal/mol]
[1]	5.35

[2]
Conditions	vapor or sublimation pressure
336.8 K, Crystal, Torsion effusion method	2.8e-05 kPa
337.1 K, Crystal, Torsion effusion method	2.8e-05 kPa
339.5 K, Crystal, Torsion effusion method	3.8e-05 kPa
340 K, Crystal, Torsion effusion method	3.8e-05 kPa
340.1 K, Crystal, Torsion effusion method	3.8e-05 kPa
341 K, Crystal, Torsion effusion method	4.7e-05 kPa
341.9 K, Crystal, Torsion effusion method	4.7e-05 kPa
342.8 K, Crystal, Torsion effusion method	5.7e-05 kPa
342.9 K, Crystal, Torsion effusion method	5.7e-05 kPa
343.3 K, Crystal, Torsion effusion method	5.7e-05 kPa
346 K, Crystal, Torsion effusion method	8.5e-05 kPa
346.6 K, Crystal, Torsion effusion method	9.4e-05 kPa
346.7 K, Crystal, Torsion effusion method	9.4e-05 kPa
348.3 K, Crystal, Torsion effusion method	0.000114 kPa
349 K, Crystal, Torsion effusion method	0.000114 kPa
349.4 K, Crystal, Torsion effusion method	0.000133 kPa
350.6 K, Crystal, Torsion effusion method	0.000151 kPa
350.8 K, Crystal, Torsion effusion method	0.000133 kPa
351.7 K, Crystal, Torsion effusion method	0.00017 kPa
351.8 K, Crystal, Torsion effusion method	0.00017 kPa
352.7 K, Crystal, Torsion effusion method	0.00019 kPa
352.8 K, Crystal, Torsion effusion method	0.00017 kPa
354.4 K, Crystal, Torsion effusion method	0.000208 kPa
354.7 K, Crystal, Torsion effusion method	0.000219 kPa
354.8 K, Crystal, Torsion effusion method	0.000228 kPa
355.5 K, Crystal, Torsion effusion method	0.000264 kPa
355.7 K, Crystal, Torsion effusion method	0.000247 kPa
355.8 K, Crystal, Torsion effusion method	0.000247 kPa
356.4 K, Crystal, Torsion effusion method	0.000264 kPa
358.2 K, Crystal, Torsion effusion method	0.00034 kPa and 0.000323 kPa
358.7 K, Crystal, Torsion effusion method	0.000361 kPa
359.4 K, Crystal, Torsion effusion method	0.000379 kPa
360.2 K, Crystal, Torsion effusion method	0.000415 kPa
360.5 K, Crystal, Torsion effusion method	0.000436 kPa and 0.000415 kPa
361.4 K, Crystal, Torsion effusion method	0.000512 kPa
362.2 K, Crystal, Torsion effusion method	0.000472 kPa
363.1 K, Crystal, Torsion effusion method	0.000533 kPa
363.2 K, Crystal, Torsion effusion method	0.000571 kPa
364.1 K, Crystal, Torsion effusion method	0.000625 kPa
366.2 K, Crystal, Torsion effusion method	0.000819 kPa and 0.000741 kPa
368.4 K, Crystal, Torsion effusion method	0.000951 kPa
368.7 K, Crystal, Torsion effusion method	0.00102 kPa
369.6 K, Crystal, Torsion effusion method	0.001041 kPa
463.1 K, Liquid, Rate of evaporation	1.495 kPa
468.1 K, Liquid, Rate of evaporation	1.882 kPa
473.1 K, Liquid, Rate of evaporation	2.253 kPa
477.9 K, Liquid, Rate of evaporation	2.67 kPa
481.9 K, Liquid, Rate of evaporation	3.103 kPa
486.5 K, Liquid, Rate of evaporation	4.064 kPa
492.1 K, Liquid, Rate of evaporation	5.014 kPa
496.2 K, Liquid, Rate of evaporation	6.311 kPa

Conditions	Triple point temperature [K]
[2], Crystal	444.1
